≈ marks a conversion by molar mass, not a printed value. Counter-ions that a name gives are not always drawn.
Columns and labels:
HCT116 cells = experiment: In vivo tumour growth, HCT116 tumour in nude mice; set-up: species or system human; conditions: solvent + CPT-11 10 mg/kg/day i.v. for seven days (no compound); day 21; parental HCT116
Excerpt: A solvent was solely administered to a control group. On the day 21 from the start of administration, a tumor was extirpated from each mice and weighed, and the tumor growth inhibition ratio IR (%) was derived from the following equation: Tumor growth inhibition ratio IR(%)=(1−average tumor weight of each administration group/average tumor weight of control group)×100.

A549/SN-38-4 cells = experiment: Effect of overcoming SN-38 resistance of BCRP-expressing A549/SN-38-4 cells; format: cell-based, human; conditions: Homo sapiens, A549, 48 h, concentration for 50% reduction of relative SN-38 resistance value (IC50 A549/SN-38-4 / IC50 A549); 48 hours culture with SN-38; read-out: Effect of overcoming resistance EC50
Outline: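 A549/SN-38-4 cells and parental A549 cells were seeded at 2×10^3 per well in Ham's F-12 with 10% FBS and precultured overnight at 37 °C. Viable cells were counted colorimetrically with TetraColor ONE after drug culture. A relative resistance value was derived.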

P388/BCRP cells = experiment: Effect of overcoming SN-38 resistance of human BCRP gene-transduced P388 cells; format: cell-based, mouse; conditions: with SN-38, 48 hours, FIG. 1
Method: (§1) Mouse leukemia P388 cells or human BCRP gene-transduced P388 cells (P388/BCRP cells) (see JP-A-2003-063989) were suspended in 10% FBS/RPMI1640 containing 2-mercaptethanol (50 μM), and the resultant suspension was added to a 96-well microplate (1×10^4 cells/50 μL/well). Thereafter, a solution of each of Compounds 1, 14, 21, 31, 39, and 41 of the present invention and SN-38 in 100 FBS/RPNI1640 (25 μL) was added to each of the wells, followed by culturing at 5% CO2 and 37° C. for 48 hours. After completion of culturing, the number of viable cells was counted by use of TetraColor ONE according to the manufacture's instruction manual.

P388 cells = experiment: Sensitivity of parental P388 cells to SN-38; format: cell-based, mouse; conditions: with SN-38, 48 hours, FIG. 1
Method: as §1

K562/MDR cells = experiment: Effect on paclitaxel (multidrug) resistance of human MDR1 gene-transduced K562 cells; format: cell-based; conditions: Homo sapiens; concentration for 50% reduction of relative paclitaxel resistance value; K562/MDR vs K562; 72 hours; read-out: Effect of overcoming resistance EC50
Excerpt: After completion of culturing, the number of viable cells was counted by use of TetraColor ONE according to the manufacture's instruction manual.

K562/BCRP cells = experiment: Intracellular accumulation of SN-38 in BCRP-expressing cells; format: cell-based, human; conditions: compound 500 ng/mL, 37° C. for 30 minutes, FIG. 2
Method: (§2) K562 cells or human BCRP gene-transduced K562 cells (K562/BCRP cells) (see JP-A-2003-063989) were suspended in 10% FBS/RPMI1640 (1 mL) (5×10^6 cells/mL), and SN-38 and each of Compounds 1, 39, and 46 of the present invention (final concentration: 500 ng/mL) were added to the resultant suspension, followed by incubation at 37° C. for 30 minutes. Thereafter, centrifugation was performed (2° C., 1,400×g, 1 min), and the resultant supernatant was removed. Ice-cooled PBS containing 1% BSA was added to the thus-pelletized cells, and the cells were resuspended, followed by centrifugation (2° C., 1,400×g, 1 min) for washing the cells. This washing procedure was performed again, followed by addition of PBS (250 μL) and sonication of the cells. To the resultant cell sonicate, methanol (250 μL) and 10% zinc sulfate solution (10 μL) were added, and the resultant mixture was stirred, followed by centrifugation (2° C., 12, 500×g, 5 min) and collection of the supernatant. The thus-collected supernatant was dispensed in a white 96-well microplate for fluorescence intensity measurement (200 μL/well), and then the amount of SN-38 contained in the supernatant was measured by use of a microplate fluorometer [SPECTRA max GEMINI XS (trademark), product of Molecular Devices] […]

K562 cells = experiment: Intracellular accumulation of SN-38 in parental K562 cells; format: cell-based, human; conditions: compound 500 ng/mL, 37° C. for 30 minutes, FIG. 2
Method: as §2

EC50 (A549/SN-38-4 cells) [µg/mL] | EC50 (K562/MDR cells) [µg/mL] | SMILES | Tumor weight Mean ± S.D. (HCT116 cells) [g] | Effect of overcoming the SN-38 resistance of the P388/BCRP cells (P388/BCRP cells) | Effect on sensitivity of the P388 cells to SN-38 (P388 cells) | Amount of accumulation of SN-38 in the K562/BCRP cells (K562/BCRP cells) | Amount of accumulation of SN-38 in the K562 cells (parental cells) (K562 cells)
– | – | CCc1c2c(nc3ccc(OC(=O)N4CCC(N5CCCCC5)CC4)cc13)-c1cc3c(c(=O)n1C2)COC(=O)[C@]3(O)CC [CPT-11, irinotecan hydrochloride] | 0.37 ± 0.08 | – | – | – | –
0.006 (≈ 0.019 µM) | > 5 | COc1ccc(/C(C#N)=C/c2ccc([N+](=O)[O-])s2)cc1OC [Compound 1, (Z)-2-(3,4-dimethoxy-phenyl)-3-(5-nitro-thiophen-2-yl)-acrylonitrile] | – | potent effect of overcoming the SN-38 resistance | did not affect the sensitivity | increased the amount of accumulation of SN-38 | virtually unaffected
0.037 (≈ 0.146 µM) | > 5 | COc1ccc(/C(C#N)=C/c2ccc[nH]2)cc1OC [Compound 39, (Z)-2-(3,4-dimethoxy-phenyl)-3-(1H-pyrrol-2-yl)-acrylonitrile] | – | potent effect of overcoming the SN-38 resistance | did not affect the sensitivity | increased the amount of accumulation of SN-38 | virtually unaffected
